Measurements published in publication PMC10749220, “Development of a Rapid in vivo Assay to Evaluate the Efficacy of IRE1-specific Inhibitors of the Unfolded Protein Response Using Medaka Fish” (Cell Structure and Function, 2019).

Target: T1, IRE1α (Homo sapiens, UniProt O75460)
T1 construct: gene ERN1; His-tagged cytoplasmic region of IRE1α (IRE1-C), expressed in SF9 insect cells
Assay: in vitro XBP1 mRNA cleavage assay with purified IRE1-C, urea-PAGE, SYBR Gold stain
Format: biochemical

T1 sequence (O75460 465-977 limits assumed): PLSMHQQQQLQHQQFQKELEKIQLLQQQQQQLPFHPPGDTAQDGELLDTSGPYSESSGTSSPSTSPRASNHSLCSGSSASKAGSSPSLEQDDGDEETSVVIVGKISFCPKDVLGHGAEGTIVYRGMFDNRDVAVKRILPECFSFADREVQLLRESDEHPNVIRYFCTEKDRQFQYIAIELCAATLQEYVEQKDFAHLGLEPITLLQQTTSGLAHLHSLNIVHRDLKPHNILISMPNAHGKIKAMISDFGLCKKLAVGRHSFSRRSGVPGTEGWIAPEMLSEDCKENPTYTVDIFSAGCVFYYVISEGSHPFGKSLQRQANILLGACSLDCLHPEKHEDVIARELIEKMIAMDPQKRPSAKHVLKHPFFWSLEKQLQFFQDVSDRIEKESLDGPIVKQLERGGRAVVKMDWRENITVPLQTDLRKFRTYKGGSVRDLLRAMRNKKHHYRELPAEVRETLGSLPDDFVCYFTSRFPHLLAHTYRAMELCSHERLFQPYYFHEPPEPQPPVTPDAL

SMILES | IC50
Cc1cc(=O)oc2c(C=O)c(O)ccc12 [4μ8C] | 0.0741 µM
Oc1ccc(/C=C/c2ccc(/C=C/c3ccc(O)cc3)c(Br)c2)cc1 [K114] | 30.8 µM
